Results from patent US9150569B2, “Nitrogen-containing heterocyclic compound having inhibitory effect on production of kynurenine” (KYOWA HAKKO KIRIN CO., LTD., priority 2010, dated 2015).

Tested on: production of kynurenine in KATO-III cells
Experiment: Inhibitory activity on the production of kynurenine (IFN-γ-treated KATO-III cells, kynurenine in the culture medium quantified by absorbance at 480 nm)
Format: cell-based
Conditions: test compound at 10 μmol/L, human gastric cancer cell line KATO-III, 96 hours, read-out: inhibition rate (production of kynurenine)
Description: This assay was performed by a modification of the method described in J. Biol. Chem., vol. 263, pp. 2041-2048 (1988). For culture of the human gastric cancer cell line KATO-III, RPMI 1640 (GIBCO, 11875) supplemented with 10 volt FBS (GIBCO, 10091-148, lot. 665285) was used. One μL of a test substance in a DMSO solution was diluted with 199 μL of the culture medium and placed in wells of a 384-well plate (10 μL/well). Next, IFN-γ (Sigma, 1-3265) was added to the culture medium to a concentration of 31.25 ng/mL, and KATO-III cells were suspended at 50,000 cells/mL in the culture medium. Forty μL of the suspension was added to each well (2,000 cells/well) and incubated under a 5% CO2 atmosphere at 37° C. for 96 hours. The final concentration of DMSO was limited to 0.1 volt or less so that DMSO itself may not affect the kynurenine concentration measured by this assay. After the incubation, 10 μL of a 30 w/vt aqueous trichloroacetic acid solution was added to each well, and incubation was performed at 65° C. for 30 minutes. The plate was centrifuged at 2,500×g for 5 minutes and 15μL of the supernatant in each well was transferred into another 384-well plate. To the transferred supernatant, 15 μL of a 2 w/vt solution of p-dimethylaminobenzaldehyde in acetic acid was added, incubation was performed at 65° C. for 20 minutes and the absorbance was measured at 480 nm.
Sample: the absorbance value of the well to which a DMSO solution containing a test substance was added and in which the cells were treated with IFN-γ.
Blank: the absorbance value of the well to which DMSO not containing a test substance was added and in which the cells were treated with IFN-γ.
Control: the absorbance value of the well to which DMSO not containing a test substance was added and in which the cells were not treated with IFN-γ.
In this assay, expression of IDO in KATO-III cells is induced by IFN-γ treatment and kynurenine in the culture medium is quantified. The kynurenine concentration in a culture medium is known to increase in proportion to the enzymatic activity of intracellular IDO (for example, J. Biol. Chem., vol. 263, pp. 2041-2048 ([…])). […] The production of kynurenine is known to be inhibited by IDO inhibitors (for example, J. Clin. Invest., vol. 117, No. 5, pp. 1147-1154 […]), and thus it is speculated that Compounds (I) also have an inhibitory effect on IDO.

| Compound | inhibition at 10 µM |
| --- | --- |
| CCCS(=O)(=O)Nc1nc2ccccc2nc1OC(c1ccc(-c2noc(C)n2)nc1)C(F)(F)F (stereo not shown) [Compound 66, N-(3-(2,2,2-trifluoro-1-(6-(5-methyl-1,2,4-oxadiazol-3-yl)pyridin-3-yl)ethoxy)quinoxalin-2-yl)propane-1-sulfonamide] | ≥ 80% |
| CCCS(=O)(=O)Nc1nc2ccccc2nc1OC(c1cccnc1)C(F)F (stereo not shown) [Compound 17, N-(3-(2,2-difluoro-1-(pyridin-3-yl)ethoxy)quinoxalin-2-yl) propane-1-sulfonamide] | ≥ 80% |
| CCCS(=O)(=O)Nc1nc2ccccc2nc1OC(c1cnc(C(C)=O)s1)C(F)(F)F (stereo not shown) [Compound 71, N-(3-(1-(2-acetylthiazol-5-yl)-2,2,2-trifluoroethoxy)quinoxalin-2-yl)propane-1-sulfonamide] | ≥ 80% |
| CCCS(=O)(=O)Nc1nc2ccccc2nc1OC(c1ccc[n+]([O-])c1)C(C)(C)F (stereo not shown) [Compound 8, 3-(2-fluoro-2-methyl-1-(3-(propylsulfonamido)quinoxalin-2-yloxy)propyl)pyridine 1-oxide] | ≥ 80% |
| CCCS(=O)(=O)Nc1nc2cc(C#N)ccc2nc1OC(c1cccnc1)C(F)(F)F (stereo not shown) [Compound 78, N-(7-cyano-3-(2,2,2-trifluoro-1-(pyridin-3-yl)ethoxy)quinoxalin-2-yl)propane-1-sulfonamide] | ≥ 80% |
| CCCS(=O)(=O)Nc1nc2ccccc2nc1OC(c1ccc[n+]([O-])c1)C1CC1 (stereo not shown) [Compound 6, 3-(cyclopropyl(3-(propylsulfonamido)quinoxalin-2-yloxy)methyl)pyridine 1-oxide] | ≥ 80% |
| COCCS(=O)(=O)Nc1nc2ccccc2nc1OC(c1ccnc(C(C)=O)c1)C(F)(F)F (stereo not shown) [Compound 72, N-(3-(1-(2-acetylpyridin-4-yl)-2,2,2-trifluoroethoxy)quinoxalin-2-yl)-2-methoxyethanesulfonamide] | ≥ 80% |
| CCCS(=O)(=O)Nc1nc2ccccc2nc1OC(c1cccnc1)C(C)(C)C (stereo not shown) [Compound 3, N-(3-(2,2-dimethyl-1-(pyridin-3-yl)propoxy)quinoxalin-2-yl) propane-1-sulfonamide] | ≥ 80% |
| COCCS(=O)(=O)Nc1nc2ccccc2nc1OC(c1ccc(-n2ccnc2C)nc1)C(F)(F)F (stereo not shown) [Compound 69, 2-methoxy-N-(3-(2,2,2-trifluoro-1-(6-(2-methyl-1H-imidazol-1-yl)pyridin-3-yl)ethoxy)quinoxalin-2-yl)ethanesulfonamide] | ≥ 80% |
| CCCS(=O)(=O)Nc1nc2ccccc2nc1OC(c1ccccc1)c1cccnc1 (stereo not shown) [Compound 23, N-(3-(phenyl(pyridin-3-yl)methoxy)quinoxalin-2-yl)propane-1-sulfonamide] | ≥ 80% |
| CCCCS(=O)(=O)Nc1nc2ccccc2nc1OC(c1ccnc(C#N)c1)C(F)(F)F (stereo not shown) [Compound 52, N-(3-(1-(2-cyanopyridin-4-yl)-2,2,2-trifluoroethoxy)quinoxalin-2-yl)butane-1-sulfonamide] | ≥ 80% |
| O=S(=O)(CC1CC1)Nc1nc2ccccc2nc1OC(c1ccncc1)C(F)(F)F (stereo not shown) [Compound 50, 1-cyclopropyl-N-(3-(2,2,2-trifluoro-1-(pyridin-4-yl)ethoxy)quinoxalin-2-yl)methanesulfonamide] | ≥ 80% |
| CC(C)CS(=O)(=O)Nc1nc2ccccc2nc1OC(c1ccncc1)C(F)(F)F (stereo not shown) [Compound 51, 2-methyl-N-(3-(2,2,2-trifluoro-1-(pyridin-4-yl)ethoxy)quinoxalin-2-yl)propane-1-sulfonamide] | ≥ 80% |
| C#Cc1ccc2nc(OC(c3cccnc3)C(F)(F)F)c(NS(=O)(=O)CCC)nc2c1 (stereo not shown) [Compound 79, N-(7-ethynyl-3-(2,2,2-trifluoro-1-(pyridin-3-yl)ethoxy)quinoxalin-2-yl)propane-1-sulfonamide] | ≥ 80% |
| CCCC(Oc1nc2ccccc2nc1NS(=O)(=O)CCC)c1cccnc1 (stereo not shown) [Compound 21, N-(3-(1-(pyridin-3-yl)butoxy)quinoxalin-2-yl)propane-1-sulfonamide] | ≥ 80% |
| CCCCS(=O)(=O)Nc1nc2ccccc2nc1OC(c1ccc(S(C)(=O)=O)nc1)C(F)(F)F (stereo not shown) [Compound 40, N-(3-(2,2,2-trifluoro-1-(6-(methylsulfonyl)pyridin-3-yl)ethoxy)quinoxalin-2-yl)butane-1-sulfonamide] | ≥ 80% |

| Compound | inhibition at 10 µM |
| --- | --- |
| CCCS(=O)(=O)Nc1nc2ccccc2nc1OC(c1ccc2c(c1)OCCO2)C(F)(F)F (stereo not shown) [Compound 48, N-(3-(1-(2,3-dihydrobenzo[b][1,4]dioxin-6-yl)-2,2,2-trifluoroethoxy)quinoxalin-2-yl)propane-1-sulfonamide] | ≥ 80% |
| CCCCS(=O)(=O)Nc1nc2ccccc2nc1OC(c1cc[n+]([O-])cc1)C(F)(F)F (stereo not shown) [Compound 47, 4-(1-(3-(butylsulfonamido)quinoxalin-2-yloxy)-2,2,2-trifluoroethyl)pyridine 1-oxide] | ≥ 80% |
| CCCS(=O)(=O)Nc1nc2ccccc2nc1OC(CC)c1ccc[n+]([O-])c1 (stereo not shown) [Compound 16, 3-(1-(3-(propylsulfonamido)quinoxalin-2-yloxy)propyl)pyridine 1-oxide] | ≥ 80% |
| CCCCS(=O)(=O)Nc1nc2ccccc2nc1OC(c1ccc(-c2cnn(C)c2)nc1)C(F)(F)F (stereo not shown) [Compound 33, N-(3-(2,2,2-trifluoro-1-(6-(1-methyl-1H-pyrazol-4-yl)pyridin-3-yl)ethoxy)quinoxalin-2-yl)butane-1-sulfonamide] | ≥ 80% |
| CCCS(=O)(=O)Nc1nc2ccccc2nc1OC(c1cnc(C)n1C)C(F)(F)F (stereo not shown) [Compound 70, N-(3-(1-(1,2-dimethyl-1H-imidazol-5-yl)-2,2,2-trifluoroethoxy)quinoxalin-2-yl)propane-1-sulfonamide] | ≥ 80% |
| COCCS(=O)(=O)Nc1nc2ccccc2nc1OC(c1ccc(-c2cnco2)nc1)C(F)(F)F (stereo not shown) [Compound 73, 2-methoxy-N-(3-(2,2,2-trifluoro-1-(6-(oxazol-5-yl)pyridin-3-yl)ethoxy)quinoxalin-2-yl)ethanesulfonamide] | ≥ 80% |
| COCCS(=O)(=O)Nc1nc2ccccc2nc1OC(c1cnc(C(C)=O)s1)C(F)(F)F (stereo not shown) [Compound 74, N-(3-(1-(2-acetylthiazol-5-yl)-2,2,2-trifluoroethoxy)quinoxalin-2-yl)-2-methoxyethanesulfonamide] | ≥ 80% |
| CCCS(=O)(=O)Nc1nc2ccccc2nc1OC(c1cccnc1)C1(C)CC1 (stereo not shown) [Compound 13, N-(3-((1-methylcyclopropyl)(pyridin-3-yl)methoxy)quinoxalin-2-yl)propane-1-sulfonamide] | ≥ 80% |
| CCCCS(=O)(=O)Nc1nc2ccccc2nc1OC(c1ccncc1)C(F)(F)F (stereo not shown) [Compound 46, N-(3-(2,2,2-trifluoro-1-(pyridin-4-yl)ethoxy)quinoxalin-2-yl)butane-1-sulfonamide] | ≥ 80% |
| CCCS(=O)(=O)Nc1nc2ccccc2nc1OC(c1ccccc1)c1ccc[n+]([O-])c1 (stereo not shown) [Compound 24, 3-(phenyl(3-(propylsulfonamido)quinoxalin-2-yloxy)methyl)pyridine 1-oxide] | ≥ 80% |
| CCCS(=O)(=O)Nc1nc2ccccc2nc1OC(CC)c1cccnc1 (stereo not shown) [Compound 15, N-(3-(1-(pyridin-3-yl)propoxy)quinoxalin-2-yl)propane-1-sulfonamide] | ≥ 80% |
| CCCS(=O)(=O)Nc1nc2ccccc2nc1OC(c1cccnc1)C(C)(C)F (stereo not shown) [Compound 7, N-(3-(2-fluoro-2-methyl-1-(pyridin-3-yl)propoxy)quinoxalin-2-yl)propane-1-sulfonamide] | ≥ 80% |
| CCCS(=O)(=O)Nc1nc2ccccc2nc1OC(c1ccc(-c2cnn(C)c2)nc1)C(F)(F)F (stereo not shown) [Compound 32, N-(3-(2,2,2-trifluoro-1-(6-(1-methyl-1H-pyrazol-4-yl)pyridin-3-yl)ethoxy)quinoxalin-2-yl)propane-1-sulfonamide] | ≥ 80% |
| COCCS(=O)(=O)Nc1nc2ccccc2nc1OC(c1ccc(-c2cnn(C)n2)nc1)C(F)(F)F (stereo not shown) [Compound 68A, 2-methoxy-N-(3-(2,2,2-trifluoro-1-(6-(2-methyl-2H-1,2,3-triazol-4-yl)pyridin-3-yl)ethoxy)quinoxalin-2-yl)ethanesulfonamide] | ≥ 80% |
| CCCS(=O)(=O)Nc1nc2ccccc2nc1OC(c1ccn2cc(C)nc2c1)C(F)(F)F (stereo not shown) [Compound 53, N-(3-(2,2,2-trifluoro-1-(2-methylimidazo[1,2-a]pyridin-7-yl)ethoxy)quinoxalin-2-yl)propane-1-sulfonamide] | ≥ 80% |
